Measured values published in US11390597B2, “Salt and solid state forms of escitalopram” (priority 2017, dated 2022).

How the values were obtained:
[1] = Comparative pharmacokinetics of escitalopram salts, IV and SC administration in rats; type: in vivo; details: Sprague dawley rats, single IV dose 1 mg/kg or SC dose 5 mg/kg, blood analyzed for escitalopram
Method: Escitalopram salt solutions are prepared for intravenous (IV) and/or subcutaneous (SC) administration as follows: A 1 mg/kg solution of escitalopram oxalate (Ox-Esc) is prepared for IV administration at 1 mL/kg in 10% DMSO, 30% Solutol® (polyoxyethylated 12-hydroxystearic acid), 60% PBS.
A 1 mg/kg solution of escitalopram pamoate (P-Esc) is prepared for IV administration 1 mL/kg in 10% DMSO, 30% Solutol®, 60% PBS, and for SC administration 200 uL of 5 mg/kg in DMSO.
(§1) The pharmacokinetics of IV administered escitalopram oxalate are determined as follows. […] Blood is collected from rats post dose in EDTA K2 tubes in a staggered design (cohort 1: 0 min, 30 min, 4 hr, 24 hr; cohort 2: 5 min, 1 hr, 8 hr, 36 hr; cohort 3: 15 min, 2 hr, 12 hr, 48 hr) and analyzed for escitalopram.
as §1, with “pamoate” for “oxalate”
The pharmacokinetics of SC administered escitalopram pamoate are determined as follows. […] Blood is collected from rats post dose in EDTA K2 tubes in a staggered design (cohort 1: 0 min, 1 hr, 8 hr, 48 hr; cohort 2: 5 min, 2 hr, 24 hr, 72 hr; cohort 3: 30 min, 4 hr, 36 hr, 96 hr) and analyzed for escitalopram. […]

[2] = Treatment of human subjects with escitalopram gentisate composition; type: in vivo; details: human subject afflicted with a neuropsychiatric disorder, periodic administration (IV, oral, subcutaneous)
Text: Periodic administration is meant to include inter alia IV, oral and subcutaneous administration.

## CN(C)CCCC1(c2ccc(F)cc2)OCc2cc(C#N)ccc21.O=C(O)c1cc(O)ccc1O (centres unmarked) [escitalopram gentisate]
[1]
  pharmacokinetic profile compared with pamoate and oxalate salts: distinct from those of the pamoate and oxalate salts
[2]
  reducing or eliminating the symptoms of the neuropsychiatric disorder: clinically meaningful advantage in reducing or eliminating the symptoms
